The record followed here is PubChem BioAssay AID2060900 (Molecular Pharmacology Branch, DTP, NCI, 2025).

pIC50: −log10 of the molar value.

This test has as its system 521955-158-R2-J5-PDC complex spheroids, viability. The experiment in a line: Anticancer human tumor 521955-158-R2-J5-PDC patient-derived pancreatic carcinoma cell line growth inhibition [RAS]. In outline:
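Tumour cells grown as complex spheroids with HUVEC endothelial cells and mesenchymal stem cells, treated with RAS pathway inhibitor combinations. Each agent spans half-log steps from near clinical Cmax, or 10 microM where Cmax is unknown.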
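Further: compound exposure lasted seven days before the viability read.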

As for `C=CC(=O)N1CCN(c2nc(OCC3CCCN3C)nc3c(F)c(-c4nc(N)cc(C)c4C(F)(F)F)c(Cl)cc23)C(C)C1` (configuration not stated), the pIC50 runs as follows: (compound alone, run of 06/10/2024) under 6.00; (curve of compound) under 6.00.

One may read the pIC50 as the IC50 on a negative log10 scale, so that one unit is a factor of ten.
